We go through 31 sequences from patent US8258114B2, “Modulation of glucose-6-phosphatase translocase expression” (Isis Pharmaceuticals, Inc., priority 2004, dated 2012).

Oligonucleotides are written 5' to 3', each unit as a sugar letter and its base; * is a phosphorothioate linkage, no mark a phosphodiester; rarer units and linkages stand in square brackets, end groups in braces. Plain capitals give the bases only. e = 2'-O-(2-methoxyethyl) (MOE); [5mC] = 5-methylcytosine; d = 2'-deoxy (DNA)

The series relates to human glucose-6-phosphatase translocase mRNA. As to the kind of experiment: Antisense inhibition of human glucose-6-phosphatase translocase mRNA in T-24 cells, real-time PCR (Table 4). The series is classed as cell-based. The conditions noted are these: 100 nM oligonucleotide, LIPOFECTIN, mRNA by real-time PCR. The method, then: The transitional cell bladder carcinoma cell line T-24 was obtained from the American Type Culture Collection (ATCC) (Manassas, Va.). T-24 cells were routinely cultured in complete McCoy's 5A basal media (Invitrogen Life Technologies, Carlsbad, Calif.) supplemented with 10% fetal bovine serum (Invitrogen Life Technologies, Carlsbad, Calif.). Cells were routinely passaged by trypsinization and dilution when they reached approximately 90% confluence. Cells were seeded into 96-well plates (Falcon-Primaria #3872) at a density of approximately 4000-6000 cells/well for use in oligomeric compound transfection experiments. When cells reached 65-75% confluency, they were treated with oligonucleotide. […] This transfection mixture was incubated at room temperature for approximately 0.5 hours. For cells grown in 96-well plates, wells were washed once with 100 μL OPTI-MEMTM-1 and then treated with 130 μL of the transfection mixture. Cells grown in 24-well plates or other standard tissue culture plates are treated similarly, using appropriate volumes of medium and oligonucleotide. Cells are treated and data are obtained in duplicate or triplicate. After approximately 4-7 hours of treatment at 37° C., the medium containing the transfection mixture was replaced with fresh culture medium. Cells were harvested 16-24 hours after oligonucleotide treatment. […] Prior to quantitative PCR analysis, primer-probe sets specific to the target gene being measured were evaluated for their ability to be “multiplexed” with a GAPDH amplification reaction. After isolation the RNA is subjected to sequential reverse transcriptase (RT) reaction and real-time PCR, both of which are performed in the same well. RT and PCR reagents were obtained from Invitrogen Life Technologies (Carlsbad, Calif.). […] The RT reaction was carried out by incubation for 30 minutes at 48° C. Following a 10 minute incubation at 95° C. to activate the PLATINUM® Taq, 40 cycles of a two-step PCR protocol were carried out: 95° C. for 15 seconds (denaturation) followed by 60° C. for 1.5 minutes (annealing/extension). Gene target quantities obtained by RT, real-time PCR were normalized using either the expression level of GAPDH, a gene whose expression is constant, or by quantifying total RNA using RiboGreenTM (Molecular Probes, Inc. Eugene, Oreg.). GAPDH expression was quantified by RT, real-time PCR, by being run simultaneously with the target, multiplexing, or separately. Total RNA was quantified using RiboGreenTM RNA quantification reagent (Molecular Probes, Inc. Eugene, Oreg.). A series of oligomeric compounds was designed to target different regions of human glucose-6-phosphatase translocase, using published sequences cited in Table 1. All compounds in Table 4 are chimeric oligonucleotides (“gapmers”) 20 nucleotides in length, composed of a central “gap” region consisting of 10 2'-deoxynucleotides, which is flanked on both sides ([NT]) by five-nucleotide “wings”. The wings are composed of 2'-O-(2-methoxyethyl) nucleotides, also known as 2'-MOE nucleotides. The internucleoside (backbone) linkages are phosphorothioate throughout the oligonucleotide. All cytidine residues are 5-methylcytidines. The compounds were analyzed for their effect on gene target mRNA levels by quantitative real-time PCR as described in other examples herein, using the following primer-probe set designed to hybridize to human glucose-6-phosphatase translocase: Forward primer: [NT] (incorporated herein as SEQ ID NO: 24) Reverse primer: [NT] (incorporated herein as SEQ ID NO: 25) And the PCR probe was: […] (incorporated herein as SEQ ID NO: 26), where FAM is the fluorescent dye and TAMRA is the quencher dye. Data are from experiments in which T-24 cells were treated with 100 nM of the antisense oligonucleotides of the present invention using LIPOFECTINTM. A reduction in expression is expressed as percent inhibition in Table 4. If present, “N.D.” indicates “not determined”. The control oligomeric compound used was SEQ ID NO: 11. […]
On the technique in general: Real-time PCR tracks product formation cycle by cycle.
As for “AACCACACACAGTGCCCCAG (eA*eA*e[5mC]*e[5mC]*eA*d[5mC]*dA*d[5mC]*dA*d[5mC]*dA*dG*dT*dG*d[5mC]*e[5mC]*e[5mC]*e[5mC]*eA*eG; antisense) [ISIS 194853]”, the “% Inhib” value was 35%.

As for “AGATAGGGCCAGCGTGCTGC (eA*eG*eA*eT*eA*dG*dG*dG*d[5mC]*d[5mC]*dA*dG*d[5mC]*dG*dT*eG*e[5mC]*eT*eG*e[5mC]; antisense) [ISIS 194832]”, the “% Inhib” value is reported as 55%.

For “AGGCAAAGAATATGTTGACC (eA*eG*eG*e[5mC]*eA*dA*dA*dG*dA*dA*dT*dA*dT*dG*dT*eT*eG*eA*e[5mC]*e[5mC]; antisense) [ISIS 194830]”, the “% Inhib” value was found to be 68%.

Regarding “ATGGCGAGGGTTCCCGTAGT (eA*eT*eG*eG*e[5mC]*dG*dA*dG*dG*dG*dT*dT*d[5mC]*d[5mC]*d[5mC]*eG*eT*eA*eG*eT; antisense) [ISIS 194831]”, the “% Inhib” value is on record as 54%.

On to “CACCTATATCCAACTGCGCC (e[5mC]*eA*e[5mC]*e[5mC]*eT*dA*dT*dA*dT*d[5mC]*d[5mC]*dA*dA*d[5mC]*dT*eG*e[5mC]*eG*e[5mC]*e[5mC]; antisense) [ISIS 194837]”, for which the “% Inhib” value came to 81%.

As to “CAGGGCACTCATGTAGGAGC (e[5mC]*eA*eG*eG*eG*d[5mC]*dA*d[5mC]*dT*d[5mC]*dA*dT*dG*dT*dA*eG*eG*eA*eG*e[5mC]; antisense) [ISIS 194840]”, the “% Inhib” value is given as 51%.

With “CAGTTCCCAGATCTGCTGAG (e[5mC]*eA*eG*eT*eT*d[5mC]*d[5mC]*d[5mC]*dA*dG*dA*dT*d[5mC]*dT*dG*e[5mC]*eT*eG*eA*eG; antisense) [ISIS 194851]”, the “% Inhib” value worked out at 73%.

Consider “CAGTTCCTGCTTGCCGCTCT (e[5mC]*eA*eG*eT*eT*d[5mC]*d[5mC]*dT*dG*d[5mC]*dT*dT*dG*d[5mC]*d[5mC]*eG*e[5mC]*eT*e[5mC]*eT; antisense) [ISIS 194856]”, for which the “% Inhib” value is listed as 56%.

“CATTAGTGCCCTGCAGCTGC (e[5mC]*eA*eT*eT*eA*dG*dT*dG*d[5mC]*d[5mC]*d[5mC]*dT*dG*d[5mC]*dA*eG*e[5mC]*eT*eG*e[5mC]; antisense) [ISIS 194828]”: the “% Inhib” value stood at 73%.

Regarding “CCAGGCAGGCCCCTCCTTTT (e[5mC]*e[5mC]*eA*eG*eG*d[5mC]*dA*dG*dG*d[5mC]*d[5mC]*d[5mC]*d[5mC]*dT*d[5mC]*e[5mC]*eT*eT*eT*eT; antisense) [ISIS 194858]”, the “% Inhib” value is 71%.

Consider “CCTGCTTGCCGCTCTCACAG (e[5mC]*e[5mC]*eT*eG*e[5mC]*dT*dT*dG*d[5mC]*d[5mC]*dG*d[5mC]*dT*d[5mC]*dT*e[5mC]*eA*e[5mC]*eA*eG; antisense) [ISIS 194844]”, for which the “% Inhib” value was 73%.

For “CTGTAGCCCCCAAACATGGC (e[5mC]*eT*eG*eT*eA*dG*d[5mC]*d[5mC]*d[5mC]*d[5mC]*d[5mC]*dA*dA*dA*d[5mC]*eA*eT*eG*eG*e[5mC]; antisense) [ISIS 194835]”, the “% Inhib” value is on record as 59%.

Consider “CTTGGCAATGGTGCTGAAGG (e[5mC]*eT*eT*eG*eG*d[5mC]*dA*dA*dT*dG*dG*dT*dG*d[5mC]*dT*eG*eA*eA*eG*eG; antisense) [ISIS 194847]”, for which the “% Inhib” value is 66%.

For “GATAGCCTCACTTCAGGTGG (eG*eA*eT*eA*eG*d[5mC]*d[5mC]*dT*d[5mC]*dA*d[5mC]*dT*dT*d[5mC]*dA*eG*eG*eT*eG*eG; antisense) [ISIS 194836]”, the “% Inhib” value is 58%.

Consider “GATGAACCCCAAATCATCCT (eG*eA*eT*eG*eA*dA*d[5mC]*d[5mC]*d[5mC]*d[5mC]*dA*dA*dA*dT*d[5mC]*eA*eT*e[5mC]*e[5mC]*eT; antisense) [ISIS 194827]”, for which the “% Inhib” value was 55%.

With “GCTGACTGTCCTTTCTCCTG (eG*e[5mC]*eT*eG*eA*d[5mC]*dT*dG*dT*d[5mC]*d[5mC]*dT*dT*dT*d[5mC]*eT*e[5mC]*e[5mC]*eT*eG; antisense) [ISIS 194859]”, the “% Inhib” value amounted to 62%.

As to “GCTGCGCCAGCTGTAGCTCT (eG*e[5mC]*eT*eG*e[5mC]*dG*d[5mC]*d[5mC]*dA*dG*d[5mC]*dT*dG*dT*dA*eG*e[5mC]*eT*e[5mC]*eT; antisense) [ISIS 194843]”, the “% Inhib” value was 66%.

Consider “GGACTCTCTTCACTCAGCCT (eG*eG*eA*e[5mC]*eT*d[5mC]*dT*d[5mC]*dT*dT*d[5mC]*dA*d[5mC]*dT*d[5mC]*eA*eG*e[5mC]*e[5mC]*eT; antisense) [ISIS 194825]”, for which the “% Inhib” value stood at 73%.

In the case of “GGTGCGGATGTTTCGTAGGA (eG*eG*eT*eG*e[5mC]*dG*dG*dA*dT*dG*dT*dT*dT*d[5mC]*dG*eT*eA*eG*eG*eA; antisense) [ISIS 194826]”, the “% Inhib” value came out at 76%.

Take “GGTTGCCAGGATAGGGCCCA (eG*eG*eT*eT*eG*d[5mC]*d[5mC]*dA*dG*dG*dA*dT*dA*dG*dG*eG*e[5mC]*e[5mC]*e[5mC]*eA; antisense) [ISIS 194846]”: the “% Inhib” value was 70%.

“GTCAAGGGTCATTAGTGCCC (eG*eT*e[5mC]*eA*eA*dG*dG*dG*dT*d[5mC]*dA*dT*dT*dA*dG*eT*eG*e[5mC]*e[5mC]*e[5mC]; antisense) [ISIS 194854]”: the “% Inhib” value was 80%.

Take “TAACCAGTGGAGAGCACCCA (eT*eA*eA*e[5mC]*e[5mC]*dA*dG*dT*dG*dG*dA*dG*dA*dG*d[5mC]*eA*e[5mC]*e[5mC]*e[5mC]*eA; antisense) [ISIS 194833]”: the “% Inhib” value turned out to be 60%.

Take “TAGTGGTACAGTGAGAATGA (eT*eA*eG*eT*eG*dG*dT*dA*d[5mC]*dA*dG*dT*dG*dA*dG*eA*eA*eT*eG*eA; antisense) [ISIS 194848]”: the “% Inhib” value stood at 81%.

“TCCTTGTCCAAAGGGATCTC (eT*e[5mC]*e[5mC]*eT*eT*dG*dT*d[5mC]*d[5mC]*dA*dA*dA*dG*dG*dG*eA*eT*e[5mC]*eT*e[5mC]; antisense) [ISIS 194842]”: the “% Inhib” value is 57%.

For the sequence “TCTCTTCCACCAATGATGGC (eT*e[5mC]*eT*e[5mC]*eT*dT*d[5mC]*d[5mC]*dA*d[5mC]*d[5mC]*dA*dA*dT*dG*eA*eT*eG*eG*e[5mC]; antisense) [ISIS 194841]”, the “% Inhib” value was 41%.

Take “TGACTGTCCTTTCTCCTGGA (eT*eG*eA*e[5mC]*eT*dG*dT*d[5mC]*d[5mC]*dT*dT*dT*d[5mC]*dT*d[5mC]*e[5mC]*eT*eG*eG*eA; antisense) [ISIS 194834]”: the “% Inhib” value worked out at 71%.

“TGCCTACAAGGCCCCCAACT (eT*eG*e[5mC]*e[5mC]*eT*dA*d[5mC]*dA*dA*dG*dG*d[5mC]*d[5mC]*d[5mC]*d[5mC]*e[5mC]*eA*eA*e[5mC]*eT; antisense) [ISIS 194849]”: the “% Inhib” value is listed as 65%.

As for “TGCGCCTAGTGGTACAGTGA (eT*eG*e[5mC]*eG*e[5mC]*d[5mC]*dT*dA*dG*dT*dG*dG*dT*dA*d[5mC]*eA*eG*eT*eG*eA; antisense) [ISIS 194829]”, the “% Inhib” value turned out to be 82%.

As for “TGTCCTTTCTCCTGGATAAG (eT*eG*eT*e[5mC]*e[5mC]*dT*dT*dT*d[5mC]*dT*d[5mC]*d[5mC]*dT*dG*dG*eA*eT*eA*eA*eG; antisense) [ISIS 194852]”, the “% Inhib” value is 44%.

As for “TGTTTCGTAGGAGGAAGAAG (eT*eG*eT*eT*eT*d[5mC]*dG*dT*dA*dG*dG*dA*dG*dG*dA*eA*eG*eA*eA*eG; antisense) [ISIS 194857]”, the “% Inhib” value turned out to be 44%.

In the case of “TTCCTGCTTGCCGCTCTCAC (eT*eT*e[5mC]*e[5mC]*eT*dG*d[5mC]*dT*dT*dG*d[5mC]*d[5mC]*dG*d[5mC]*dT*e[5mC]*eT*e[5mC]*eA*e[5mC]; antisense) [ISIS 194845]”, the “% Inhib” value was 50%.
